{"source": "patent US5834452A", "about": "“1- or 6-hydroxylated steroids” (Roussel Uclaf, priority 1996, dated 1998)", "key": {"[1]": {"target": "T1, Human glucocorticoid receptor (HGR) (Homo sapiens, UniProt P04150)", "T1 construct": "made in house; host or cells: SF9 insect cells (baculovirus), lysate supernatant", "T1 sequence (P04150 1-777)": "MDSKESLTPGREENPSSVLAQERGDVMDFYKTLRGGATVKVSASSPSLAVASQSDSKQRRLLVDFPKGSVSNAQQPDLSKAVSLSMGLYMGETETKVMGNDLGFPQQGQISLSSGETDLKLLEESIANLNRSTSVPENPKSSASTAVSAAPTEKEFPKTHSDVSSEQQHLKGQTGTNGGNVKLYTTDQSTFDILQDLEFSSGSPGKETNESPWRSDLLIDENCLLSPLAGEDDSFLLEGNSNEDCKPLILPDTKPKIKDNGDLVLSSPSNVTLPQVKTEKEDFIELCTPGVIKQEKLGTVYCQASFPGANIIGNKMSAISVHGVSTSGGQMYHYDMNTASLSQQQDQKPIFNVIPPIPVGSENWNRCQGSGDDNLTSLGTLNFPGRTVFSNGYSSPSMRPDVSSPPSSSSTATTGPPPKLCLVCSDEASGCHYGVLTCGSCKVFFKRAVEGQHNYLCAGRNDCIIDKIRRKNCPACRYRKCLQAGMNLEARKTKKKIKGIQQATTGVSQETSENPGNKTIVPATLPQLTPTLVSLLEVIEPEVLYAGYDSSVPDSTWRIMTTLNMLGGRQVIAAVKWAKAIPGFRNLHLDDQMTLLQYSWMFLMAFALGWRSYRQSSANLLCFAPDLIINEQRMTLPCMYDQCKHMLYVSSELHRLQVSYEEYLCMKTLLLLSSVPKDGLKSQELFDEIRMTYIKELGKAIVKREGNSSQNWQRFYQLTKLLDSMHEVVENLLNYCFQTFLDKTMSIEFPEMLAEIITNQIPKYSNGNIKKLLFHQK", "assay": "Relative bond affinity (RBA), recombinant human glucocorticoid receptor, charcoal dextran technique", "format": "binding", "details": "24 h at 0° C.; Dexamethasone = 100", "description": "(§1) The human recombinant receptor (HGR, HPR, HAR, HMR, HER) was used.\nHuman glucocorticoid receptor (HGR):\nA supernatant of SF9 cells containing the recombinant human glucocorticoid receptor was obtained by the process described above for the progestogen receptor using the cDNA fragment described by Hollenberg et al (Nature, (1985), Vol. 318 No. 19/26 635) containing the region coding for the human glucocorticoid receptor. The cells obtained were lysed in the lysis buffer (2).\nThe supernatant was incubated at 0° C. for 24 hours with a constant concentration (T) of tritiated 11β, 17β-dihydroxy-6,21-dimethyl-[…] the presence of increasing concentrations of either unlabelled dexamethasone (0-1000×10^-9 M), or the unlabelled product to be tested (1 to 25000×10^-9 M). The concentration of bound tritiated 11β, 17β-dihydroxy-6,21-dimethyl-Δ^1,4,6 -pregnatriene-20-yn-3-one (B) was then measured in each incubate using the charcoal dextran adsorption technique. […]\n(§2) The following two curves were drawn: the percentage of bound tritiated hormone B/BO as a function of the logarithm of the concentration of unlabelled reference hormone or as a function of the logarithm of the concentration of unlabelled test product. The straight line of the following equation was determined: […]\nThe relative bond affinity (RBA) of the test product was determined by the equation: […]"}, "[2]": {"target": "T2, Human estrogen receptor (HOR) (Homo sapiens, UniProt P03372)", "T2 construct": "made in house; host or cells: SF9 insect cells (baculovirus), lysate supernatant", "T2 sequence (P03372 1-595)": "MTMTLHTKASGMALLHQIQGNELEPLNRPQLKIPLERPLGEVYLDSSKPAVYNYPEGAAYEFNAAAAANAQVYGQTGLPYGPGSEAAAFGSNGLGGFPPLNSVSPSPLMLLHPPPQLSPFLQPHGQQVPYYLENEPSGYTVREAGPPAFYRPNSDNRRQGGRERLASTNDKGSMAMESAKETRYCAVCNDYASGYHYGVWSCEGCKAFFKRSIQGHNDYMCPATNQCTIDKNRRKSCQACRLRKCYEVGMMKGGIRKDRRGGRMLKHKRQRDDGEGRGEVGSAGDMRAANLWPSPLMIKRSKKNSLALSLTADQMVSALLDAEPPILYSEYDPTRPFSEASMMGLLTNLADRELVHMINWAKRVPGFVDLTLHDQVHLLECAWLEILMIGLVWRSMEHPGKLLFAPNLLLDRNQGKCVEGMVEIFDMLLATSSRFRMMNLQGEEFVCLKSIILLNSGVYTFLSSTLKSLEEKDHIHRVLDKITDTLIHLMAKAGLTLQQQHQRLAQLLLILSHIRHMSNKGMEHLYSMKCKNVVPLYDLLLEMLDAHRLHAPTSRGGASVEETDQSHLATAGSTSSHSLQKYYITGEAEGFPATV", "assay": "Relative bond affinity (RBA), recombinant human estrogen receptor, charcoal dextran technique", "format": "binding", "details": "24 h at 0° C., Estradiol = 100", "description": "as §1\nHuman estrogen receptor (HOR):\nA supernatant of SF9 cells containing the recombinant human estrogen receptor was obtained by the process described above for the progestogen receptor using the cDNA fragment described in the expression vector HEGO by Tora et al (The EMBO Journal, (1989), Vol. 8 No. 7, p. 1981-1986) containing the region coding for the human estrogen receptor of \"wild type\" with a glycine in position 400. The cells obtained were lysed in the lysis buffer (1).\nThe supernatant was incubated at 0° C. for 24 hours with a constant concentration (T) of tritiated estradiol in the presence of increasing concentrations of either unlabelled estradiol (0-1000×10^-9 M), or the unlabelled product to be tested (1 to 25000×10^-9 M). The concentration of bound tritiated estradiol (B) was then measured in each incubate using the charcoal dextran adsorption technique.\nCalculation of the relative bond affinity (RBA).\nas §2\nThe intersections of the straight line I50 and the curves allowed the evaluation of the concentrations of unlabelled reference hormone (CH) and of the unlabelled test product (CX) which inhibited by 50% the specific binding of the tritiated hormone on the receptor.\nThe relative bond affinity (RBA) of the test product was determined by the equation:\nThe RBA's of reference products Estradiol, Progesterone Dexamethasone, Testosterone and Aldosterone were arbitrarily taken as being equal to 100."}, "[3]": {"tested_on": "endometrial proliferation (uterine lace)", "assay": "Progestomimetic activity: endometrial transformation in the rabbit (Clauberg-McPhail test)", "format": "in vivo", "design": "key to Average uterine lace (McPhail Index): McPhail scale 0–4 with 0.5 steps (endometrial proliferation)", "details": "for Progestomimetic activity: rabbit"}}, "data": [{"smiles": "C[C@H](O)C(=O)[C@@]1(C)CC[C@H]2[C@@H]3C[C@@H](O)C4=CC(=O)CCC4=C3CC[C@@]21C", "note": "[Product B, [6β, 17β-(S)]-6-hydroxy-17-(2-hydroxy-1-oxopropyl)-17-methyl-Δ^4,9-estradiene-3-one]", "values": [{"measurement": "RBA, Human glucocorticoid receptor", "setting": "[1]", "result": "no or negligible RBA's"}, {"measurement": "RBA, Human estrogen receptor", "setting": "[2]", "result": 0}, {"measurement": "RBA, Human estrogen receptor", "setting": "[2]; listed as product B", "result": "zero"}]}, {"smiles": "C[C@H](O)C(=O)[C@@]1(C)CC[C@H]2[C@@H]3CCC4=CC(=O)CCC4=C3CC[C@@]21C", "note": "[Trimegestone, [17β-(S)]-17-(2-hydroxy-1-oxopropyl)-17-methyl-Δ^4,9-estradiene-3-one, reference compound]", "values": [{"measurement": "RBA, Human estrogen receptor", "setting": "[2]", "result": 0}, {"measurement": "RBA, Human estrogen receptor", "setting": "[2]; listed as Trimegesterone", "result": "zero"}, {"measurement": "Progestomimetic activity", "setting": "[3]; 3 μg/kg percutaneously", "result": "strong activity"}, {"measurement": "Average uterine lace (McPhail Index)", "setting": "[3]; rabbit, 0,003 mg/kg, s/c, day 8 to day 11", "result": "3,8"}, {"measurement": "Progestomimetic activity", "setting": "[3]; 3 and 10 μg/kg orally", "result": "strong activity"}]}]}
